# US20060134102A1, “Lymphotoxin beta receptor agents in combination with chemotherapeutic agents” (Biogen Idec MA Inc., priority 2002, published 2006)
# Values joined by “and” are separate entries in the source; they are usually repeats but may differ in a detail not shown here. Identical values can stand only once.
# Tests used:
# [1] = tested on: WiDr human colorectal adenocarcinoma; test: WiDr xenograft model: growth of established WiDr human colorectal tumors in athymic nude mice (tumor volume/weight, % T/C, Fa, Combination Index); details: for Volume Decrease: vs control; for Individual Fractional Inhibition of Tumor Volume / Individual Tumor Volumes: individual animals
# Description: Therapeutic agents, i.e. LTβR agonist and chemotherapeutic agents, were administered to athymic nude mice who had been implanted with WiDr tumor cells.
# WiDr cells were obtained from the American Type Culture Collection (Manassas, Va.). Cells were grown in vitro in 90% Eagle's Minimum Essential Medium with 2 mM L-glutamine and Earle's Balanced Salt Solution (BSS) adjusted to contain 1.5 g/L sodium bicarbonate, 0.1 mM non-essential amino acids, and 1 mM sodium pyruvate plus 10% fetal bovine serum (FBS) without antibiotics (5% CO2). Bacterial cultures were performed on aliquots of the tumor homogenate preparation that was implanted into the mice to ensure that all cultures were negative for bacterial contamination at both 24 and 48 hours post implant.
# When the tumors measured approximately 5 mm in length by 5 mm in width, mice were randomized to treatment and control groups. Body weight measurements were recorded twice-weekly beginning on Day 0.
# Tumor measurements were determined using Vernier calipers. Tumor size measurements were recorded regularly according to the study, until the termination of the study. The formula to calculate volume for a prolate ellipsoid was used to estimate tumor volume (mm^3) from 2-dimensional tumor measurements: tumor volume (mm^3)=(length×width^2 [L×W^2])÷2. Assuming unit density, volume was converted to weight (i.e., 1 mm^3=1 mg). Tumor growth inhibition was assessed as % T/C, where T is the mean tumor weight of the treatment group and C is the mean tumor weight of the control group. […] Animals were sacrificed accordingly.
# Statistical analysis of the tumor weight measurements was performed according to standard statistical methods. Mean, standard deviation (SD), and standard error of the mean (SEM) were determined for body weight and tumor weight for all dose groups at all assessments.
# Antitumor efficacy was determined by comparing each treatment group's tumor volume with the control group's tumor volume. Mean tumor volume decrease was calculated as the difference between the control group and the treatment group mean tumor volume. The fractional inhibition of tumor volume, i.e., the fraction affected (Fa), was calculated by dividing the treatment group mean tumor volume decrease by the control group mean tumor volume. […] Further statistical analysis was performed accordingly.
# [2] = tested on: KM-20L2 human colorectal adenocarcinoma; test: KM-20L2 xenograft model: growth of established KM-20L2 human colorectal tumors in athymic nude mice (tumor volume/weight, % T/C, Fa, Combination Index); format: in vivo; details: for Mean Fraction Affected (Fa): Camptosar 3 mg/kg alone; for Fraction affected (Fa): Camptosar 6.0 mg/kg given separately
structure (smiles),measurement,setting,value
"N.N.[Cl][Pt][Cl] [Cisplatin, cisplatin, reference compound]","Fa (fractional inhibition of tumor volume), group mean","[1]; Cisplatin 1 mg/kg, day 44",0.083
same,"Fa, individual animals","[1]; Cisplatin 1 mg/kg, day 44",−0.478 and 0.344 and 0.025 and −0.016 and 0.140 and 0.102 and 0.222 and 0.128 and 0.098 and 0.268
same,"Tumor Volume, group mean","[1]; Cisplatin 1 mg/kg, day 44",1300.4
same,"Tumor volume, individual animals","[1]; Cisplatin 1 mg/kg, day 44",2096.4 and 930.1 and 1383.3 and 1440.7 and 1220.3 and 1274.3 and 1103.9 and 1236.7 and 1280.0 and 1038.3
same,"Volume Decrease vs control, group mean","[1]; Cisplatin 1 mg/kg, day 44",118.2
same,"Fa (fractional inhibition of tumor volume), group mean","[1]; Cisplatin 2 mg/kg, day 44",0.055
same,"Fa, individual animals","[1]; Cisplatin 2 mg/kg, day 44",0.082 and −0.061 and −0.036 and 0.618 and −0.290 and −0.523 and 0.241 and 0.054 and 0.316 and 0.151
same,"Tumor Volume, group mean","[1]; Cisplatin 2 mg/kg, day 44",1340.1
same,"Tumor volume, individual animals","[1]; Cisplatin 2 mg/kg, day 44",1301.9 and 1505.3 and 1469.5 and 541.4 and 1829.8 and 2160.2 and 1076.4 and 1342.0 and 970.2 and 1204.2
same,"Volume Decrease vs control, group mean","[1]; Cisplatin 2 mg/kg, day 44",78.5
same,Activity by NCI criteria (% T/C of 42 or less),[1]; cisplatin 2 mg/kg to 0.25 mg/kg,inactive
same,Tumor growth vs saline control,"[1]; cisplatin 2 mg/kg, 1 mg/kg and 0.25 mg/kg, day 50",did not differ significantly
"COc1cccc2c1C(=O)c1c(O)c3c(c(O)c1C2=O)C[C@@](O)(C(=O)CO)C[C@@H]3O[C@H]1C[C@H](N)[C@H](O)[C@H](C)O1 [Adriamycin, adriamycin, reference compound]","Fa (fractional inhibition of tumor volume), group mean","[1]; Adriamycin 4 mg/kg, day 35",−0.204
same,"Fa, individual animals","[1]; Adriamycin 4 mg/kg, day 35",0.033 and −0.408 and −1.391 and 0.530 and −0.660 and −0.137 and −0.379 and −0.389 and 0.251 and 0.512
same,"Tumor Volume, group mean","[1]; Adriamycin 4 mg/kg, day 35",1353.0
same,"Tumor volume, individual animals","[1]; Adriamycin 4 mg/kg, day 35",1582.5 and 2687.5 and 528.1 and 1865.5 and 1277.8 and 1550.2 and 1560.9 and 842.1 and 548.3
same,"Volume Decrease vs control, group mean","[1]; Adriamycin 4 mg/kg, day 35",−229.0
same,"Fa (fractional inhibition of tumor volume), group mean","[1]; Adriamycin 6 mg/kg, day 35",0.089
same,"Fa, individual animals","[1]; Adriamycin 6 mg/kg, day 35",−0.295 and 0.095 and 0.380 and 0.462 and 0.198 and 0.209 and 0.057 and −0.060 and 0.522 and −0.674
same,"Tumor Volume, group mean","[1]; Adriamycin 6 mg/kg, day 35",1023.5
same,"Tumor volume, individual animals","[1]; Adriamycin 6 mg/kg, day 35",1455.4 and 696.6 and 605.1 and 901.8 and 889.3 and 1191.2 and 537.2 and 1881.7
same,"Volume Decrease vs control, group mean","[1]; Adriamycin 6 mg/kg, day 35",100.5
same,Activity by NCI criteria (% T/C at or below 42),"[1]; adriamycin 1 mg/kg to 6 mg/kg intraperitoneal, all tested doses",inactive
same,Inhibition of tumor growth,"[1]; adriamycin 6 mg/kg or 4 mg/kg, day 35, separate study",did not produce a significant inhibition
same,Tumor growth vs vehicle control,"[1]; adriamycin groups, day 42 (end of study)",no significant difference
"CCc1c2c(nc3ccc(OC(=O)N4CCC(N5CCCCC5)CC4)cc13)-c1cc3c(c(=O)n1C2)COC(=O)[C@]3(O)CC [Camptosar, irinotecan, reference compound]",Activity by NCI criteria (% T/C at or below 42),[2]; Camptosar,active
same,Mean Fraction Affected (Fa),[2]; Day 9,0.098
same,Mean Fraction Affected (Fa),[2]; Day 13,0.327
same,Mean Fraction Affected (Fa),[2]; Day 20,0.593
same,Mean Fraction Affected (Fa),[2]; Day 23,0.521
same,Mean Fraction Affected (Fa),[2]; Day 30,0.406
same,Inhibition of tumor growth vs saline control,"[2]; Camptosar 6 mg/kg days 13 through 51, 3 mg/kg days 13 through 48, […] days 9 through 44, separate study",statistically significant inhibition of tumor growth
same,Fraction affected (Fa),[2]; Day 16,0.594
same,Fraction affected (Fa),[2]; Day 20,0.781
same,Fraction affected (Fa),[2]; Day 23,0.759
same,Fraction affected (Fa),[2]; Day 27,0.701
same,Fraction affected (Fa),[2]; Day 30,0.607
same,Fraction affected (Fa),[2]; Day 34,0.564
same,Fraction affected (Fa),[2]; Day 37,0.495
same,Tumor inhibition,"[2]; Camptosar groups, end of day 55, separate study",no significant tumor inhibition
same,Median Effect Dose,"[2]; Combined (1:0.63 huCBE11:Camptosar), dose of the labelled agent in the combination, Day 13",6.7 mg/kg
same,Median Effect Dose,"[2]; Combined (1:0.63 huCBE11:Camptosar), dose of the labelled agent in the combination, Day 16",1.6 mg/kg
same,Median Effect Dose,"[2]; Combined (1:0.63 huCBE11:Camptosar), dose of the labelled agent in the combination, Day 20",0.6 mg/kg
same,Median Effect Dose,"[2]; Combined (1:0.63 huCBE11:Camptosar), dose of the labelled agent in the combination, Day 23",0.7 mg/kg
same,Median Effect Dose,"[2]; Combined (1:0.63 huCBE11:Camptosar), dose of the labelled agent in the combination, Day 27",1.0 mg/kg
same,Median Effect Dose,"[2]; Combined (1:0.63 huCBE11:Camptosar), dose of the labelled agent in the combination, Day 30",1.1 mg/kg
same,Median Effect Dose,"[2]; Combined (1:0.63 huCBE11:Camptosar), dose of the labelled agent in the combination, Day 34",1.1 mg/kg
same,Median Effect Dose,"[2]; Combined (1:0.63 huCBE11:Camptosar), dose of the labelled agent in the combination, Day 37",1.0 mg/kg
same,Median Effect Dose,"[2]; Combined (1:0.63 huCBE11:Camptosar), dose of the labelled agent in the combination, Day 41",1.0 mg/kg
same,Median Effect Dose,"[2]; Given Separately, Day 13",12.4 mg/kg
same,Median Effect Dose,"[2]; Given Separately, Day 16",4.0 mg/kg
same,Median Effect Dose,"[2]; Given Separately, Day 20",2.3 mg/kg
same,Median Effect Dose,"[2]; Given Separately, Day 23",2.7 mg/kg
same,Median Effect Dose,"[2]; Given Separately, Day 27",3.2 mg/kg
same,Median Effect Dose,"[2]; Given Separately, Day 30",4.2 mg/kg
same,Median Effect Dose,"[2]; Given Separately, Day 34",4.7 mg/kg
same,Median Effect Dose,"[2]; Given Separately, Day 37",6.0 mg/kg
same,Median Effect Dose,"[2]; Given Separately, Day 41",7.3 mg/kg
same,"Fa (Fraction Affected), group mean","[1]; Camptosar 3 mg/kg, day 21",0.238
same,"Fa, individual animals","[1]; Camptosar 3 mg/kg, day 21",0.336 and 0.314 and 0.078 and 0.269 and 0.245 and −0.068 and 0.513 and 0.208 and 0.093
same,"Fa (Fraction Affected), group mean","[1]; Camptosar 6 mg/kg, day 21",0.441
same,"Fa, individual animals","[1]; Camptosar 6 mg/kg, day 21",0.302 and 0.473 and 0.521 and 0.544 (2×) and 0.590 and 0.110 and 0.614 and 0.277
same,"Fa (Fraction Affected), group mean","[1]; Camptosar 10 mg/kg, day 21",0.476
same,"Fa, individual animals","[1]; Camptosar 10 mg/kg, day 21",0.464 and 0.347 and 0.575 and 0.375 and 0.573 and 0.163 and 0.516 and 0.684 and 0.648
same,Activity by NCI criteria (% T/C of 42 or less),[1]; Camptosar […] to 10 mg/kg,inactive
same,Median Effect Dose,"[1]; Camptosar combined with huCBE11 (0.555:1), day 21",5.7 mg/kg
same,Median Effect Dose,"[1]; Camptosar given separately, day 21",9.8 mg/kg
"CC(=O)O[C@H]1C(=O)[C@@]2(C)[C@H]([C@H](OC(=O)c3ccccc3)[C@]3(O)C[C@H](OC(=O)[C@H](O)[C@@H](NC(=O)c4ccccc4)c4ccccc4)C(C)=C1C3(C)C)[C@]1(OC(C)=O)CO[C@@H]1C[C@@H]2O [Taxol, reference compound]",Fa (Fraction Affected),"[1]; Day 34, Taxol 12.5 mg/kg",0.171
same,Tumor Volume,"[1]; Day 34, Taxol 12.5 mg/kg",1141.1
same,Fa (Fraction Affected),"[1]; Day 34, Taxol 18.75 mg/kg",0.588
same,Tumor Volume,"[1]; Day 34, Taxol 18.75 mg/kg",567.5
same,Volume Decrease,"[1]; Day 34, Taxol 18.75 mg/kg",808.9
same,Fa (Fraction Affected),"[1]; Day 34, Taxol 25 mg/kg",0.812
same,Tumor Volume,"[1]; Day 34, Taxol 25 mg/kg",259.1
same,Volume Decrease,"[1]; Day 34, Taxol 25 mg/kg",1117.3
same,Median Effect Dose,"[1]; Day 34, Taxol Given Separately",12.6 mg/kg
same,Median Effect Dose,"[1]; Day 34, Taxol dose, Combined (0.333:1) with huCBE11",6.6 mg/kg
same,Individual Fractional Inhibition of Tumor Volume,"[1]; Day 34, Taxol 6.25",0.231 and −0.036 and 0.421 and 0.375 and 0.469 and 0.157 and 0.552 and 0.284 and −0.217 and 0.168
same,Individual Tumor Volumes,"[1]; Day 34, Taxol 6.25",1058.1 and 1425.5 and 796.7 and 860.4 and 730.5 and 1159.9 and 616.0 and 985.1 and 1675.4 and 1144.5
same,Individual Fractional Inhibition of Tumor Volume,"[1]; Day 34, Taxol 12.5",0.854 and 0.191 and 0.140 and 0.037 and −0.278 and 0.170 and 0.192 and −0.130 and 0.198 and 0.336
same,Individual Tumor Volumes,"[1]; Day 34, Taxol 12.5",201.1 and 1113.1 and 1183.1 and 1325.2 and 1759.5 and 1143.0 and 1112.7 and 1554.9 and 1104.0 and 914.1
same,Tumor growth vs vehicle control,"[1]; Taxol 12.5 mg/kg, […] and 3.13 mg/kg",did not differ significantly
same,% T/C,"[1]; Taxol 18.75 mg/kg, Days 21 to 34",below 42%
same,% T/C,"[1]; Taxol 25 mg/kg, Days 13 to 39",below 42%
same,% T/C,"[1]; Taxol 25 mg/kg, Days 21 to 50",below 42%
same,% T/C,"[1]; Taxol 12.5, 6.25 and 3.13 mg/kg, throughout the study",> 82%
